The target in this experiment is SARS-CoV-2 M^PRO (Severe acute respiratory syndrome coronavirus 2, UniProt P0DTD1). Put plainly: biochemical. The conditions noted are these: In vitro potency data, 30 min pre-incubation, 25 nM M^pro, 25 µM substrate, read-out: IC50. The class given is biochemical.

Read-outs that look alike come from different tables or passages of the source. Some results are limits rather than exact numbers.

Take `CC(C(=O)NC1CCC(F)(F)CC1)(c1cnccn1)N(C(=O)CCl)c1ccc(-c2ccns2)cc1` (single isomer, unassigned) [INSCoV-601N(1), 2-(2-Chloro-N-(4-(isothiazol-5-yl)phenyl)acetamido)-N-(4,4-difluorocyclohexyl)-2-(pyrazin-2-yl)propanamide]: the IC50 was found to be 130 nM. Still for that read-out and setting: then `N#Cc1cc(OC(F)(F)F)ccc1N(C(=O)[C@H](F)Cl)[C@@H](C(=O)NC1CCC(F)(F)CC1)c1cncnc1` (single isomer, unassigned) [INSCoV-517C(4), 2-Chloro-N-(2-cyano-4-(trifluoromethoxy)phenyl)-N-(2-((4,4-difluorocyclohexyl)amino)-2-oxo-1-(pyrimidin-5-yl)ethyl)-2-fluoroacetamide], with above 25000 nM. Still for that read-out and setting: for `O=C(NC1CCCCC1)C(c1cccnc1)N(CCc1ccccc1F)C(=O)CCl` (centres unmarked) [INSCoV-503G] the value was 2300 nM. The same measure, in the same setting: for `O=C(N[C@H]1CCOC1)[C@H](c1cncnc1)N(C(=O)CCl)c1ccc(-c2cnco2)cc1` [INSCoV-600C(1B)] the value was 310 nM. With `Cc1ccc(S(=O)(=O)CNC(=O)C(c2cncnc2)N(C(=O)CCl)c2ccc(-c3cnco3)cc2)cc1` (centres unmarked) [INSCoV-501D], the IC50 is 2510 nM.

With `CC(C)(C)c1ccc(N(C(=O)CCl)C(C(=O)NC2CCCCC2)c2cccnc2)cc1` (single isomer, unassigned) [INSCoV-110A(1), 2-(4-tert-butyl-N-(2-chloroacetyl)anilino)-N-cyclohexyl-2-(3-pyridyl)acetamide], the IC50 stood at 1980 nM.

As to `Cc1ccc(S(=O)(=O)C(C)NC(=O)C(c2cccnc2)N(C(=O)CCl)c2ccc(C(C)(C)C)cc2)cc1` (centres unmarked) [INSCoV-531], the IC50 was 12700 nM. Still for that read-out and setting: for `O=C(NC1CCS(=O)(=O)CC1)C(c1cnccn1)N(C(=O)CCl)c1ccc(-c2cnco2)cc1` (centres unmarked) [INSCoV-501M, 2-Chloro-N-(2-((1,1-Dioxidotetrahydro-2H-Thiopyran-4-yl)Amino)-2-Oxo-1-(Pyrazin-2-yl)Ethyl)-N-(4-(Oxazol-5-yl)Phenyl)Acetamide] the value was 450 nM; for `O=C(NC1CCC(F)(F)CC1)C(c1cnccn1)N(C(=O)CCl)c1ccc(-c2cncs2)cc1` (single isomer, unassigned) [INSCoV-601G(1), 2-Chloro-N-(2-((4,4-difluorocyclohexyl)amino)-2-oxo-1-(pyrazin-2-yl)ethyl)-N-(4-(thiazol-5-yl)phenyl)acetamide], 60 nM; for `O=C(NC1CCC(F)(F)CC1)C(c1cncnc1)N(C(=O)[C@@H]1CO1)c1ccc(-c2cnco2)cc1` (single isomer, unassigned) [INSCoV-600R(2A)], 2930 nM. Still for that read-out and setting: for `O=C(NC1CCCCC1)C(c1cccnc1)N(CCc1cccc(Cl)c1)C(=O)CCl` (centres unmarked) [INSCoV-503E] the value was 660 nM; for `Cc1ccccc1CCN(C(=O)CCl)C(C(=O)NC1CCCCC1)c1cccnc1` (centres unmarked) [INSCoV-503A], 2630 nM; for `O=C(NC1CCCCC1)C(c1cnccn1)N(C(=O)CCl)c1ccc(-c2cnco2)cc1` (centres unmarked) [INSCoV-501L], 400 nM. On the same count and under the same terms, for `O=C(NC1CCCCC1)C(c1cncnc1)N(C(=O)CCl)c1ccc(-c2cnco2)cc1` (centres unmarked) [INSCoV-501A, 2-Chloro-N-(2-(Cyclohexylamino)-2-oxo-1-(Pyrimidin-5-yl)Ethyl)-N-(4-(Oxazol-5-yl)Phenyl)Acetamide] the value was 290 nM; for `O=C(NC1CCCCC1)C(c1cccnc1)N(Cc1ccc(F)cc1)C(=O)CCl` (centres unmarked) [INSCoV-504], 16300 nM; for `N#Cc1cc(OC(F)(F)F)ccc1N(C(=O)[C@H](F)Cl)[C@@H](C(=O)NC1CCC(F)(F)CC1)c1cncnc1` (single isomer, unassigned) [INSCoV-517C(2), 2-Chloro-N-(2-cyano-4-(trifluoromethoxy)phenyl)-N-(2-((4,4-difluorocyclohexyl)amino)-2-oxo-1-(pyrimidin-5-yl)ethyl)-2-fluoroacetamide], 11400 nM. With `O=C(NC1CCC(F)(F)CC1)[C@@H](c1cncnc1)N(C(=O)CCl)c1ccc(-c2ccns2)cc1`, the concentration for half-maximal inhibition (IC50) was found to be 60 nM.

Turning to `O=C(NC1CCC(F)(F)CC1)C(c1cncnc1)N(C(=O)CCl)c1ccc(-c2cncs2)cc1` (single isomer, unassigned) [INSCoV-600K(2), 2-Chloro-N-(2-((4,4-difluorocyclohexyl)amino)-2-oxo-1-(pyrimidin-5-yl)ethyl)-N-(4-(thiazol-5-yl)phenyl)acetamide], the IC50 was determined as 430 nM. Still for that read-out and setting: for `O=C(N[C@H]1CCOC1)C(c1cnccn1)N(C(=O)CCl)c1ccc(-c2ccno2)cc1` (mixture of isomers) [INSCoV-601Q, 2-Chloro-N-(4-(isoxazol-5-yl)phenyl)-N-(2-oxo-1-(pyrazin-2-yl)-2-(((S)-tetrahydrofuran-3-yl)amino)ethyl)acetamid] the value was 150 nM. On the same count and under the same terms, then `O=C(NC1CCC(F)(F)CC1)[C@H](c1ccnnc1)N(C(=O)CCl)c1ccc(-c2ccns2)cc1` [INSCoV-601J(2)], with 530 nM; and `CC(C)(C)c1ccc(N(C(=O)CCl)C(C(=O)NC2CCCCC2)c2ccnnc2)cc1` (centres unmarked) [INSCoV-537, N-(4-(Tert-Butyl)Phenyl)-2-Chloro-N-(2-(Cyclohexylamino)-2-Oxo-1-(Pyridazin-4-yl)Ethyl)Acetamide], with 420 nM. With `CC(C)c1cc(F)c(NC(=O)[C@@H](c2cncnc2)N(C(=O)CCl)c2ccc(-c3ccns3)cc2)c(F)c1` [INSCoV-601O], the concentration for half-maximal inhibition (IC50) amounted to 3060 nM. With `COc1ccccc1CCN(C(=O)CCl)C(C(=O)NC1CCCCC1)c1cccnc1` (centres unmarked) [INSCoV-560A, 2-Chloro-N-(2-(Cyclohexylamino)-2-Oxo-1-(Pyridin-3-yl)Ethyl)-N-(2-Methoxyphenethyl)Acetamide], the IC50 was 4340 nM. Take `O=C(NC1CCCCC1)C(c1cccnc1)N(Cc1cccc(C(F)(F)F)c1)C(=O)CCl` (centres unmarked) [INSCoV-574, 2-Chloro-N-(2-(Cyclohexylamino)-2-Oxo-1-(Pyridin-3-yl)Ethyl)-N-(3-(Trifluoromethyl)Benzyl)Acetamide]: the IC50 is 1270 nM. On the same count and under the same terms, then `CC(C)(C)c1ccc(N(C(=O)C=O)C(C(=O)NC2CCCCC2)c2cccnc2)cc1` (centres unmarked) [INSCoV-110D], with above 50000 nM. Regarding `O=C(NC1CCOC1)[C@H](c1cncnc1)N(C(=O)CCl)c1ccc(-c2cncs2)cc1` (some centres unmarked) [INSCoV-601R(1B)], the concentration for half-maximal inhibition (IC50) (listed as INSCoV-601R(lB)) is 440 nM. Turning to `CC(C)(C)c1ccc(N(C(=O)CCl)[C@@](C)(C(=O)NC2CCCCC2)c2cccnc2)cc1` [INSCoV-538A(1)], the IC50 came out at 230 nM. Take `C=C(F)C(=O)N(c1ccc(-c2cncs2)cc1)C(C(=O)NC1CCC(F)(F)CC1)c1cncnc1` (centres unmarked) [INSCoV-616]: the half-maximal inhibitory concentration (IC50) was 8360 nM.

Take `O=C(NC1CC2(COC2)C1)C(c1cncnc1)N(C(=O)CCl)c1ccc(-c2cnco2)cc1` (centres unmarked) [INSCoV-600G]: the IC50 turned out to be 990 nM. With `O=C(N[C@H]1CCC(F)(F)C1)C(c1cncnc1)N(C(=O)CCl)c1ccc(-c2cncs2)cc1` (single isomer, unassigned) [INSCoV-601S(1B)], the 50% inhibitory concentration (IC50) was found to be 980 nM. With `O=C(NC1CCC(F)(F)CC1)C(c1ccnnc1)N(C(=O)CCl)c1ccc(-c2ccns2)cc1` (racemic) [INSCoV-601J], the IC50 stood at 120 nM. On the same count and under the same terms, then `CC(C(=O)NC1CCC(F)(F)CC1)(c1cncnc1)N(C(=O)CCl)c1ccc(-c2ccno2)cc1` (centres unmarked) [INSCoV-601P, 2-(2-Chloro-N-(4-(isoxazol-5-yl)phenyl)acetamido)-N-(4,4-difluorocyclohexyl)-2-(pyrimidin-5-yl)propanamide], with 380 nM.

In general, IC50 refers to the point on the concentration scale where inhibition reaches its midpoint.
